Target: Prolyl endopeptidase (Canis familiaris)
Assay: In vitro inhibitory activity against purified prolyl endopeptidase (PEP) from canine brain.

| IC50 [nM] | SMILES |
| --- | --- |
| 0.85 | O=C[C@@H]1CSCN1C(=O)[C@@H]1CSCN1C(=O)C[C@H]1CCc2ccccc2C1 [(R)-3-[(R)-3-((S)-2-1,2,3,4-Tetrahydro-naphthalen-2-yl-acetyl)-thiazolidine-4-carbonyl]-thiazolidine-4-carbaldehyde] |
| 3500 | CC(C)c1ccc(C(=O)c2cccs2)c(SCCCCCCCCN(C)C)n1 [[2-(8-Dimethylamino-octylsulfanyl)-6-isopropyl-pyridin-3-yl]-thiophen-2-yl-methanone] |

Reference: BindingDB's records for doi:10.1021/jm00039a019 (Zeria Pharmaceutical, 1994)
